According to ChEMBL document CHEMBL4402546, “Urea Derivatives in Modern Drug Discovery and Medicinal Chemistry” (J Med Chem, 2020):
Blank lines part the entries; values can stand above or below the molecule they belong to.

What was measured:
[1] = target: Serine/threonine-protein kinase B-raf (Homo sapiens, UniProt P15056, V600E); experiment: Inhibition of BRAF V600E mutant (unknown origin)
[2] = target: RAF proto-oncogene serine/threonine-protein kinase (Homo sapiens, UniProt P04049); experiment: Inhibition of c-RAF (unknown origin)
[3] = Half life in plasma (unknown origin); format: ADME, cell-free
[4] = target: Metabotropic glutamate receptor 5 (Rattus norvegicus, UniProt P31424); experiment: Inhibition of rat mGluR5 expressed in HEK293A cells preincubated for 140 secs followed by EC20 glutamate stimulation for 74 secs and subsequent EC80 glutamate addition and measured up to 40 secs by Fluo-4-AM dye based fluorescence assay; format: cell-based
[5] = target: Metabotropic glutamate receptor 1 (Homo sapiens, UniProt Q13255); experiment: Inhibition of mGluR1 (unknown origin)
Sequence of Metabotropic glutamate receptor 1 (Q13255 whole entry): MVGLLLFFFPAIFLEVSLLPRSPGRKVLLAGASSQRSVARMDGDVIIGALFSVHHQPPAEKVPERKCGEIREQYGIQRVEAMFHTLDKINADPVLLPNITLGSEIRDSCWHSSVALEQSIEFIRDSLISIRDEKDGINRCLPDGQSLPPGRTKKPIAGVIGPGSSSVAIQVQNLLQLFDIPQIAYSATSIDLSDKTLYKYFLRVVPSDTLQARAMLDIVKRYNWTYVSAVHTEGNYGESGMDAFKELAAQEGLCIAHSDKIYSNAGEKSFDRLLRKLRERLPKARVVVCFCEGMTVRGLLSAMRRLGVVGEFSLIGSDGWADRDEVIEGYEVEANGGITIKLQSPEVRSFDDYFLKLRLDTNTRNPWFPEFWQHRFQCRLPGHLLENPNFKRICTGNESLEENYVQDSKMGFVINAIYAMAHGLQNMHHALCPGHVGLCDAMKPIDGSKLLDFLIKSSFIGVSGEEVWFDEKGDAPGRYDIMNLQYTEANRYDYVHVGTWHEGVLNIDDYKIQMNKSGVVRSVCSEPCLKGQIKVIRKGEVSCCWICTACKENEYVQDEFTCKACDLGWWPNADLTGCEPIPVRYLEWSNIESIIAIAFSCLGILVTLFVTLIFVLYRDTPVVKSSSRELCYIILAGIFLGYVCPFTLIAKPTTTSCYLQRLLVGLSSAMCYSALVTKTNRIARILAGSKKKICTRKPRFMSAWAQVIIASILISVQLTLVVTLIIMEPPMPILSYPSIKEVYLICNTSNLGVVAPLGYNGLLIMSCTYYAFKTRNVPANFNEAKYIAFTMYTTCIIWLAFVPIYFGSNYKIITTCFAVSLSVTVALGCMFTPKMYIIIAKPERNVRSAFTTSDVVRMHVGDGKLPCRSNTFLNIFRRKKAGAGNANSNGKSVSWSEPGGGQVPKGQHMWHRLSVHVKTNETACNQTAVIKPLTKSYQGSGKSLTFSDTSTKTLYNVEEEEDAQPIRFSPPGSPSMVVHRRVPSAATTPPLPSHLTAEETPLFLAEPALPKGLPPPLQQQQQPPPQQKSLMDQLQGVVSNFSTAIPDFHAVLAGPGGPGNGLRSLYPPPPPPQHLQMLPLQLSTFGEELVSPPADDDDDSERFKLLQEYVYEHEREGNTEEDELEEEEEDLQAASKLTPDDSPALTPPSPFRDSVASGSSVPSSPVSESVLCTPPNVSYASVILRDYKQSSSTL

[6] = target: Metabotropic glutamate receptor 2 (Homo sapiens, UniProt Q14416); experiment: Inhibition of mGluR2 (unknown origin)
Sequence of Metabotropic glutamate receptor 2 (Q14416 whole entry): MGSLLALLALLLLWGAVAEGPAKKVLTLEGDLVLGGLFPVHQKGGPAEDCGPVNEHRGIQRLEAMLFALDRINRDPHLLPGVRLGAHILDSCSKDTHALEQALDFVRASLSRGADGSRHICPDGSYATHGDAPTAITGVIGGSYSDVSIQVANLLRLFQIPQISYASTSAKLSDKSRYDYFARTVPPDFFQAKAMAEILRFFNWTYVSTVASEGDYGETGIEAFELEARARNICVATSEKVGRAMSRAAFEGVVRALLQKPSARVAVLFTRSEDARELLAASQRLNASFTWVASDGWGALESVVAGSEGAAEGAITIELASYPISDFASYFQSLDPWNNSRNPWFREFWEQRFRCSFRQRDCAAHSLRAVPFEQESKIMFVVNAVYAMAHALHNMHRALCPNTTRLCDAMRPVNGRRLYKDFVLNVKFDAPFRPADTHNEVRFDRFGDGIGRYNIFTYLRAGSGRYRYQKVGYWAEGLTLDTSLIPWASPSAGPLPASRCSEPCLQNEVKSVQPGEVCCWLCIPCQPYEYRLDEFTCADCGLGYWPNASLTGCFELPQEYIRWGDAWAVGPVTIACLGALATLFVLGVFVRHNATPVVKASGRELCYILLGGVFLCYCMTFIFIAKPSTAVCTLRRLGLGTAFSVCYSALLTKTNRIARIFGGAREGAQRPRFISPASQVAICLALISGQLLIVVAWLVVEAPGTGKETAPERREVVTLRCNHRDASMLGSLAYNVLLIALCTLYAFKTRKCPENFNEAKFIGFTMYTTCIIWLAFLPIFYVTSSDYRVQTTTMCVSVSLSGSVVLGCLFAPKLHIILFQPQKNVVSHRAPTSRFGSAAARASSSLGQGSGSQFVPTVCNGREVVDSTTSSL

[7] = target: Metabotropic glutamate receptor 3 (Homo sapiens, UniProt Q14832); experiment: Inhibition of mGluR3 (unknown origin)
Sequence of Metabotropic glutamate receptor 3 (Q14832 whole entry): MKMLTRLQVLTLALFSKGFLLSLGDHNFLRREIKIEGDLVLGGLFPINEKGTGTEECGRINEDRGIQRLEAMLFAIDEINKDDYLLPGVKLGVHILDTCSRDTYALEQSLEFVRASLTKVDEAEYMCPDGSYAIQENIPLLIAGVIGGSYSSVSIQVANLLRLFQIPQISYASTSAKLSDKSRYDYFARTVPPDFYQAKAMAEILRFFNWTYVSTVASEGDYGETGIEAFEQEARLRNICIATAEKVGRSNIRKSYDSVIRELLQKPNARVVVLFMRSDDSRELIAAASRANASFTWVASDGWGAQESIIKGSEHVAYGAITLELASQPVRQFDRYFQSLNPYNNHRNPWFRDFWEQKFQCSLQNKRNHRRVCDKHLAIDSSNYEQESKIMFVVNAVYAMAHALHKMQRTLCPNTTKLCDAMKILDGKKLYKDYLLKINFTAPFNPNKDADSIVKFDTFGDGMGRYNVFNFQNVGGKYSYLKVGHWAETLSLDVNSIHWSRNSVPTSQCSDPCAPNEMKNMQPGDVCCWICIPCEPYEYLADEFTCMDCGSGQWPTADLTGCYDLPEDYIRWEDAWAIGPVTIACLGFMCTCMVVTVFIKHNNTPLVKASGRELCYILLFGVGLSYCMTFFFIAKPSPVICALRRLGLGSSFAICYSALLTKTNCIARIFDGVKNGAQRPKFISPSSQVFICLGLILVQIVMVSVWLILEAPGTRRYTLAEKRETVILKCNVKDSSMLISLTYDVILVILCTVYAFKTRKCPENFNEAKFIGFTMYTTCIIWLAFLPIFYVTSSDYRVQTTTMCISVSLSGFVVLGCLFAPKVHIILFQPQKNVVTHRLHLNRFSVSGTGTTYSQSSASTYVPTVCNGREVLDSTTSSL

[8] = target: Metabotropic glutamate receptor 4 (Homo sapiens, UniProt Q14833); experiment: Inhibition of mGluR4 (unknown origin)
Sequence of Metabotropic glutamate receptor 4 (Q14833 whole entry): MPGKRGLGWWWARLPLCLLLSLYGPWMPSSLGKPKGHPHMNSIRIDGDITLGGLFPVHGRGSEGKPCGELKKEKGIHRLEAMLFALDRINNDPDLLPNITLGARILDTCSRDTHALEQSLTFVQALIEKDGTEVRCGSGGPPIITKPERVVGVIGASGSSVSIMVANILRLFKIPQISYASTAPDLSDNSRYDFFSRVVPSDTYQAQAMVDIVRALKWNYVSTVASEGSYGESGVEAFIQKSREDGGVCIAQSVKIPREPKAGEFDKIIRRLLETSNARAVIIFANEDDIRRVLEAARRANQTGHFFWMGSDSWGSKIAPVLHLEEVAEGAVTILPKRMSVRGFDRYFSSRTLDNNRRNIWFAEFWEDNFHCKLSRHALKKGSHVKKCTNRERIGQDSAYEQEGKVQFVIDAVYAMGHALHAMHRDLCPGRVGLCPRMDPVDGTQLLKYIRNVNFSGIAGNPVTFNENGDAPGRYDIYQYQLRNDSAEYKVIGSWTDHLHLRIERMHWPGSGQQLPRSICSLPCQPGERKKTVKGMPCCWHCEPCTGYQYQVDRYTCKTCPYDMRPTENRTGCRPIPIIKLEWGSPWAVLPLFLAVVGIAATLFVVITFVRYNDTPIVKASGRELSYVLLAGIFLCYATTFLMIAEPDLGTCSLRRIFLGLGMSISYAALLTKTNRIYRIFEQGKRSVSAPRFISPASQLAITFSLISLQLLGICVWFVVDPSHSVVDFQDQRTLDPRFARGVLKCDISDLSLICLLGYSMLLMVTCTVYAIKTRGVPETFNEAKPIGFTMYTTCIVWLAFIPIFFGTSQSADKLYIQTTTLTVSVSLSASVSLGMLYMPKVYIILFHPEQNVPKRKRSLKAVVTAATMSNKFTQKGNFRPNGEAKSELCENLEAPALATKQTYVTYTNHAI

[9] = target: Metabotropic glutamate receptor 7 (Homo sapiens, UniProt Q14831); experiment: Inhibition of mGluR7 (unknown origin)
Sequence of Metabotropic glutamate receptor 7 (Q14831 whole entry): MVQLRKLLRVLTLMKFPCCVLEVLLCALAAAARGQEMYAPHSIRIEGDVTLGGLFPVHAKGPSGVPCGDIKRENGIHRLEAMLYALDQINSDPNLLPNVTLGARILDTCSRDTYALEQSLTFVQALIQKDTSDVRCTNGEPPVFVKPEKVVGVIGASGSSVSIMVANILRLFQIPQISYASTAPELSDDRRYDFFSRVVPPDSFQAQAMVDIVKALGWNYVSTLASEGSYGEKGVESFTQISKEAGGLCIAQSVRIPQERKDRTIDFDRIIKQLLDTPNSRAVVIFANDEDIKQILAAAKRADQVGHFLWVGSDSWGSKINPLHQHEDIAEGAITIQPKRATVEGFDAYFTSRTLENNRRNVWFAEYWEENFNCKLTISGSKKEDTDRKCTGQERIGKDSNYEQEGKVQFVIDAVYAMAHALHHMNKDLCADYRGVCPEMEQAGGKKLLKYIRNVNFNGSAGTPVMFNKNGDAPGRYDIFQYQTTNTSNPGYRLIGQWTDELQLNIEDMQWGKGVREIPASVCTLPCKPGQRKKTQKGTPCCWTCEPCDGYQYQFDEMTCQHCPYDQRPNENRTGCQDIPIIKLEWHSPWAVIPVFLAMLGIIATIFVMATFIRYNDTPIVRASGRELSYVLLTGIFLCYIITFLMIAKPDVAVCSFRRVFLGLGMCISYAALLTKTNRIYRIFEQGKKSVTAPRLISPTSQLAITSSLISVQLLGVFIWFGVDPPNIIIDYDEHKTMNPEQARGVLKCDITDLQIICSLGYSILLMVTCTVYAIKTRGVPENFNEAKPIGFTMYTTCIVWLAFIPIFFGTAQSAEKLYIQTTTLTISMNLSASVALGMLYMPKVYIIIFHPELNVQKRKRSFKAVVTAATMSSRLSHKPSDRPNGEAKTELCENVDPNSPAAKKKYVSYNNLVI

[10] = target: Metabotropic glutamate receptor 8 (Homo sapiens, UniProt O00222); experiment: Inhibition of mGluR8 (unknown origin)
Protease = Protease (Human immunodeficiency virus 1, UniProt Q9YQ12); experiment: Inhibition of HIV-1 protease by spectrofluorometric assay
Sequence of Protease (Q9YQ12 whole entry): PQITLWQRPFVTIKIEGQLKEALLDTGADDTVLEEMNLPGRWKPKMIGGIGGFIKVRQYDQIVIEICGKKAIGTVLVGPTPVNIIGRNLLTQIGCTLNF

LoVo = experiment: Antiproliferative activity against human LoVo cells after 72 hrs by CCK8 assay; format: functional, cell-based
HT-29 = experiment: Antiproliferative activity against human HT-29 cells after 72 hrs by CCK8 assay; format: functional, cell-based; conditions: HT-29, 72 h
DNA gyrase subunit B = DNA gyrase subunit B (Escherichia coli, UniProt P0AES6); experiment: Inhibition of Escherichia coli DNA gyrase B incubated for 60 mins by malachite green dye based spectrometric analysis
[11] = Inhibition of Escherichia coli DNA topoisomerase 4 incubated for 60 mins by malachite green dye based spectrometric analysis
Plasmodium falciparum [12] = experiment: Antimalarial activity against Plasmodium falciparum 3D7 incubated for 48 hrs by [3H]-hypoxanthine incorporation assay; format: functional, organism-based
Plasmodium falciparum [13] = experiment: Antimalarial activity against Plasmodium falciparum Dd2 incubated for 48 hrs by [3H]-hypoxanthine incorporation assay; format: functional, organism-based
Plasmodium berghei = experiment: Antiparasitic activity against blood stage Plasmodium berghei ANKA infected in ARC mouse assessed as suppression of parasitemia at 32 mg/kg, sc administered twice daily with 6 hrs apart for 4 consecutive days by Giemsa staining based microscopic analysis relative to control
[14] = Half life in schizophrenic patient at 1.5 to 12.5 mg/day; format: ADME; conditions: human, in vivo

Structure (SMILES): N#Cc1cc(F)cc(NC(=O)Nc2ccc(Cl)cn2)c1
- IC50 [4]: 13 nM
- IC50 [5]: > 30000 nM
- IC50 [6]: > 30000 nM
- IC50 [7]: > 30000 nM
- IC50 [8]: > 30000 nM
- IC50 [9]: > 30000 nM
- IC50 [10]: > 30000 nM

Structure (SMILES): N#Cc1cc(O)ccc1-c1ccc(NC(=O)Nc2ccc(Cl)c(C(F)(F)F)c2)cc1
- IC50 (LoVo): 1500 nM
- IC50 (HT-29): 1900 nM

Structure (SMILES): CCCCNC(=O)NCCc1c[nH]c2c1C(=O)C1=C(NC=CS1(=O)=O)C2=O
- IC50 (Plasmodium falciparum [12]): 644 nM
- IC50 (Plasmodium falciparum [13]): 525 nM
- Activity (Plasmodium berghei): 26%

Structure (SMILES): CN(C)C(=O)N[C@H]1CC[C@H](CCN2CCN(c3cccc(Cl)c3Cl)CC2)CC1 [CARIPRAZINE]
- half-life [14]: 48 to 120 h

Results, then the molecule that gave them:

- IC50 [1]: 316 nM
- IC50 [2]: 61 nM
Structure (SMILES): CNC(=O)c1cc(Oc2cccc3nc(NC(=O)Nc4ccc(Cl)c(C(F)(F)F)c4)ccc23)ccn1

- half-life [3]: 1.2 h
Structure (SMILES): CC(C)c1nc(CN(C)C(=O)N[C@H](C(=O)N[C@@H](Cc2ccccc2)C[C@H](O)[C@H](Cc2ccccc2)NC(=O)OCc2cncs2)C(C)C)cs1 [RITONAVIR]

- IC50 (Protease): 6.3 nM
Structure (SMILES): CC(C)CN(C[C@@H](O)[C@H](Cc1ccccc1)NC(=O)[C@H](CC(N)=O)NC(=O)c1ccc2ccccc2n1)C(=O)NC(C)(C)C

- IC50 (DNA gyrase subunit B): < 199 nM
- IC50 [11]: < 0.1 µg/mL
Structure (SMILES): CCNC(=O)Nc1nc2cc(-c3cnc(N4CCC(C(=O)O)CC4)nc3)cc(-c3ccccn3)c2s1
